ChEMBL document CHEMBL1909046, “DrugMatrix in vitro pharmacology data”

How the values were obtained:
[1] = target: T1, Estrogen receptor (Homo sapiens, UniProt P03372); settings: sf9; further: in other assays of this panel Not Active means under 50% inhibition at 10 µM
T1 sequence (P03372 whole entry): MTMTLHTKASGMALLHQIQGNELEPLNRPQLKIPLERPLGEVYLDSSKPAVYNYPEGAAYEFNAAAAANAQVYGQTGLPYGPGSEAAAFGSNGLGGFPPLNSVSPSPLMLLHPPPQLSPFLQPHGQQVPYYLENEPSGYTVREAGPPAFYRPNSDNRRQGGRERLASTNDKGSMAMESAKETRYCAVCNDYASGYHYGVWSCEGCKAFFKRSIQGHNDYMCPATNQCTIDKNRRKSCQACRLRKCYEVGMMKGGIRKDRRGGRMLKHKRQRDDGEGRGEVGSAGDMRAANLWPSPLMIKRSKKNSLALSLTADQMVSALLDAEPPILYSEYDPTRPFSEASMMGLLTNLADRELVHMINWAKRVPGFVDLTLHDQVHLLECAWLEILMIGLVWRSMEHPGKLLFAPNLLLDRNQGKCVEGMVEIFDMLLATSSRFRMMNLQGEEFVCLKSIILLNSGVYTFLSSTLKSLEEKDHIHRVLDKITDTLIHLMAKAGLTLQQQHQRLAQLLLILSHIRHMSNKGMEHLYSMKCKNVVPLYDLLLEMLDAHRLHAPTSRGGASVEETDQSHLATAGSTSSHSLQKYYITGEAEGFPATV

[2] = target: T2, 5-hydroxytryptamine receptor 1A (Rattus norvegicus, UniProt P19327); assay type: cell membranes, CHO-K1, Membrane; further: in other assays of this panel Not Active means under 50% inhibition at 10 µM
T2 sequence (P19327 whole entry): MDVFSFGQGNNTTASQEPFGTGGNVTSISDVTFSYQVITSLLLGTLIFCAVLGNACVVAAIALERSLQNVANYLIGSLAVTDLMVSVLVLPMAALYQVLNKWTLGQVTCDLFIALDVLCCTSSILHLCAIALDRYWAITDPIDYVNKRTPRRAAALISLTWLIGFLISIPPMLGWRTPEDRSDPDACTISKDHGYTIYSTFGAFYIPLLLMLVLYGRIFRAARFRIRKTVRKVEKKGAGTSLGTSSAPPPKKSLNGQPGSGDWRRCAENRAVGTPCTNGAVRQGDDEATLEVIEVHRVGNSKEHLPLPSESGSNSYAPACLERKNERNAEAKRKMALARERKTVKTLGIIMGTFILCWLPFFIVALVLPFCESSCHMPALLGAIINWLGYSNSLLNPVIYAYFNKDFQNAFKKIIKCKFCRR

[3] = target: D(3) dopamine receptor (Homo sapiens, UniProt P35462); experiment: DRUGMATRIX: Dopamine D3 radioligand binding (ligand: [3H] Spiperone); assay type: cell membranes, CHO, Membrane; settings: for Ki: read-out: Ki
Chain of D(3) dopamine receptor (P35462 whole entry): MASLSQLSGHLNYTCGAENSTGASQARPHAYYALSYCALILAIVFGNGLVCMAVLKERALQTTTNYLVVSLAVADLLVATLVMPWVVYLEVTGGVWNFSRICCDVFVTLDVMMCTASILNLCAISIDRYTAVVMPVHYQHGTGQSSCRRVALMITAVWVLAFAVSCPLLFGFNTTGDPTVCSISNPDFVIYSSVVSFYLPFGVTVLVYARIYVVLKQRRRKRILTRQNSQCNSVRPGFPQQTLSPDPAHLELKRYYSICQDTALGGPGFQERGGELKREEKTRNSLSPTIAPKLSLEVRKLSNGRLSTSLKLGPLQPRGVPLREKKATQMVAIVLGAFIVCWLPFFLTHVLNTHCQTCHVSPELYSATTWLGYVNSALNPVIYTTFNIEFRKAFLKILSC

[4] = DRUGMATRIX: Glutamate, Kainate radioligand binding (ligand: [3H] Kainic acid); assay type: cell membranes, Rattus norvegicus, Wistar, Brain, Membrane; settings: Not Active = under 50% inhibition at 10 µM
[5] = target: Cytochrome P450 2C19 (Homo sapiens, UniProt P33261); settings: bti-tn-5b1-4; further: in other assays of this panel Not Active means under 50% inhibition at 10 µM
Chain of Cytochrome P450 2C19 (P33261 whole entry): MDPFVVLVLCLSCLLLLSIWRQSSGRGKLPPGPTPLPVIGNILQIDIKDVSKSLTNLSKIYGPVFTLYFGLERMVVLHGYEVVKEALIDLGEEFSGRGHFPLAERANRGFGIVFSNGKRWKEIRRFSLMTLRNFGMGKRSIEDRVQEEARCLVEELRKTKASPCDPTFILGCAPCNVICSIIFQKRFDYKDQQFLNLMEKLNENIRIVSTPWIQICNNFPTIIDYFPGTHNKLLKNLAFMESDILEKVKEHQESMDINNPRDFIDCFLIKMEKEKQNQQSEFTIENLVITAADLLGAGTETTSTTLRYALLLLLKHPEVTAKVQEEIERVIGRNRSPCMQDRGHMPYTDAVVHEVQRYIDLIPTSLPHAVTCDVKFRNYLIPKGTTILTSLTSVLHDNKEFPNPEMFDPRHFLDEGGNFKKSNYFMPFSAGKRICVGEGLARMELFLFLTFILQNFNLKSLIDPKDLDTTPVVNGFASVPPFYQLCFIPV

[6] = target: Mu-type opioid receptor (Homo sapiens, UniProt P35372); experiment: DRUGMATRIX: Opiate mu (OP3, MOP) radioligand binding (ligand: [3H] Diprenorphine); assay type: cell membranes, CHO-K1, Membrane; settings: Not Active = under 50% inhibition at 10 µM
Chain of Mu-type opioid receptor (P35372 whole entry): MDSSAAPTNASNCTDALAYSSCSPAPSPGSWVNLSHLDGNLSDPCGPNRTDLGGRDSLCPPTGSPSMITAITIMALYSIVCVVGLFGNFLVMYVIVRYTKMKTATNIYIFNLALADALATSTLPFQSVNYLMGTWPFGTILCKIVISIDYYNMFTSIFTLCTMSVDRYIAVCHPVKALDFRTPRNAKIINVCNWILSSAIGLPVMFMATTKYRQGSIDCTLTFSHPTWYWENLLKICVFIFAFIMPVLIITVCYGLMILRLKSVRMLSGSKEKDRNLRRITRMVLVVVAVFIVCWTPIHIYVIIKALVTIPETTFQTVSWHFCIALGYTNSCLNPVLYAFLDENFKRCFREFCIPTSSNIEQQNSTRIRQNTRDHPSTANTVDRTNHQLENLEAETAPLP

[7] = target: Receptor tyrosine-protein kinase erbB-2 (Homo sapiens, UniProt P04626); assay type: cell-based; settings: insect cells;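 further: inhibition of HER2 kinase enzyme activity, measured with Poly(Glu:Tyr) as the phosphorylation substrate; in other assays of this panel Not Active means under 50% inhibition at 10 µM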
Chain of Receptor tyrosine-protein kinase erbB-2 (P04626 whole entry): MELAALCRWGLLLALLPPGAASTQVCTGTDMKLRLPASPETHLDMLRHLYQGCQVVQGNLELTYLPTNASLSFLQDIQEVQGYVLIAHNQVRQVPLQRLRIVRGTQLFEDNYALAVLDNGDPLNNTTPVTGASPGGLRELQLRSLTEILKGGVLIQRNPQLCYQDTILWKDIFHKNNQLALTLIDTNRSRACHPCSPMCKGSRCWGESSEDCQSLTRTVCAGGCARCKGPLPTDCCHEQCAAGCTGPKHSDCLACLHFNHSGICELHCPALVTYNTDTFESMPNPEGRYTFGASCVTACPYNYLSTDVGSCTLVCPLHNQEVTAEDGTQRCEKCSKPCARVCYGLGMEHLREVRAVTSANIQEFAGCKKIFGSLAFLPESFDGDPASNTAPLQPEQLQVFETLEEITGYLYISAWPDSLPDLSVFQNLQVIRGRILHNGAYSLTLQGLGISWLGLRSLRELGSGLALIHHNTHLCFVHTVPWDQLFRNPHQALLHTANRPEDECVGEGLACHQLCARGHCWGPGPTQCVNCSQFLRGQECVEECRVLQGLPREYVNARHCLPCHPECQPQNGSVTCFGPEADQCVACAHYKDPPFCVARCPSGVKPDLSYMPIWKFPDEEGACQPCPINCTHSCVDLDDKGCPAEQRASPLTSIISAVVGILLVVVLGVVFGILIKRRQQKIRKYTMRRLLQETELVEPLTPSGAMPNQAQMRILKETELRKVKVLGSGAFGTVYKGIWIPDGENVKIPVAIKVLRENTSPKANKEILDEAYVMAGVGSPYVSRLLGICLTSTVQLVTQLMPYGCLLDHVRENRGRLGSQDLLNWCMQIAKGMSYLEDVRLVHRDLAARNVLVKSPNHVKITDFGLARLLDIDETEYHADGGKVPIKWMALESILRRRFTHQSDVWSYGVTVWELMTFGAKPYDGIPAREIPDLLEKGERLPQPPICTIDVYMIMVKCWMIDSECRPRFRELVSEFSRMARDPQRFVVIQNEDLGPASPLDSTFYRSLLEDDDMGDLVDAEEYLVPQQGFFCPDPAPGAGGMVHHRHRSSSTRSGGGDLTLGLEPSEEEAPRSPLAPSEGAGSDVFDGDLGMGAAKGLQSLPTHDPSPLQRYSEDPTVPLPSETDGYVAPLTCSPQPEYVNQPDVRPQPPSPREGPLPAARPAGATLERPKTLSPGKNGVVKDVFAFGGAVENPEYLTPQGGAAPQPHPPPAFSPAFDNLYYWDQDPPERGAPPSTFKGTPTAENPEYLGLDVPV

SMILES	IC50 [1]	IC50 ([2]; cho-k1)	IC50 ([3]; cho)	IC50 [4]	Ki [4]	IC50 [5]	Ki [5]	IC50 ([6]; cho-k1)	IC50 [7]	IC50 ([3]; read-out: IC50)	Ki [3]	Ki [6]	IC50 ([6]; read-out: IC50)	IC50 ([2]; read-out: IC50)	Ki ([2]; read-out: Ki)
CC(N)C12CC3CC(CC(C3)C1)C2 (stereo not drawn) [RIMANTADINE]	Not Active	Not Active	Not Active	Not Active	Not Active	Not Active	Not Active	Not Active	Not Active	–	–	–	–	–	–
Cc1ccnc(NS(=O)(=O)c2ccc(N)cc2)n1 [SULFAMERAZINE]	Not Active	Not Active	Not Active	Not Active	Not Active	Not Active	Not Active	Not Active	Not Active	–	–	–	–	–	–
OC[C@@H](O)[C@@H](O)[C@H](O)[C@H](O)CO [MANNITOL]	Not Active	Not Active	Not Active	Not Active	Not Active	Not Active	Not Active	Not Active	Not Active	–	–	–	–	–	–
CC1=C(/C=C/C(C)=C/C=C/C(C)=C/C(=O)O)C(C)(C)CCC1 [TRETINOIN]	Not Active	Not Active	Not Active	Not Active	Not Active	Not Active	Not Active	Not Active	Not Active	–	–	–	–	–	–
C[N+]1(C)[C@@H]2C[C@@H](OC(=O)[C@H](CO)c3ccccc3)C[C@H]1[C@@H]1O[C@@H]12.[Br-] [METHSCOPOLAMINE BROMIDE]	Not Active	Not Active	Not Active	Not Active	Not Active	Not Active	Not Active	Not Active	Not Active	–	–	–	–	–	–
CCN(CC)CCNC(=O)c1cc(Cl)c(N)cc1OC [METOCLOPRAMIDE]	Not Active	Not Active	–	Not Active	Not Active	Not Active	Not Active	Not Active	Not Active	0.2 µM	0.068 µM	–	–	–	–
CN1C(=O)OC(C)(C)C1=O [TRIMETHADIONE]	Not Active	Not Active	Not Active	Not Active	Not Active	Not Active	Not Active	Not Active	Not Active	–	–	–	–	–	–
CCN(CC)C(=S)SSC(=S)N(CC)CC	Not Active	Not Active	–	Not Active	Not Active	Not Active	Not Active	–	Not Active	1.08 µM	0.368 µM	1.42 µM	3.51 µM	–	–
CC(C)(C)NC[C@H](O)COc1cccc2c1CCCC2=O [LEVOBUNOLOL]	Not Active	–	Not Active	Not Active	Not Active	Not Active	Not Active	Not Active	Not Active	–	–	–	–	2.9 µM	1.66 µM
Nc1nc(N)c2nc(-c3ccccc3)c(N)nc2n1	Not Active	Not Active	Not Active	Not Active	Not Active	Not Active	Not Active	Not Active	Not Active	–	–	–	–	–	–
Cc1ccc(Cl)c(Nc2ccccc2C(=O)O)c1Cl [MECLOFENAMIC ACID]	Not Active	Not Active	Not Active	Not Active	Not Active	Not Active	Not Active	Not Active	Not Active	–	–	–	–	–	–
CO[C@@H]1[C@@H](OC)[C@H](C)[C@@](O)(CC(=O)O)O[C@H]1[C@H](C)[C@H]1O[C@@]2(CC[C@@](C)([C@H]3CC[C@@](C)([C@@H]4O[C@@H]([C@H]5O[C@](C)(O)[C@H](C)C[C@@H]5C)C[C@@H]4O[C@@H]4C[C@H](OC)[C@@H](OC)[C@H](C)O4)O3)O2)C[C@H](O)[C@H]1C.N [MADURAMICIN]	Not Active	Not Active	Not Active	Not Active	Not Active	Not Active	Not Active	Not Active	Not Active	–	–	–	–	–	–
Cc1nnc(NS(=O)(=O)c2ccc(N)cc2)s1 [SULFAMETHIZOLE]	Not Active	Not Active	Not Active	Not Active	Not Active	Not Active	Not Active	Not Active	Not Active	–	–	–	–	–	–
CC[C@H](C)C(=O)O[C@H]1CCC=C2C=C[C@H](C)[C@H](CC[C@@H]3C[C@@H](O)CC(=O)O3)[C@H]21 [MEVASTATIN]	Not Active	Not Active	Not Active	Not Active	Not Active	Not Active	Not Active	Not Active	Not Active	–	–	–	–	–	–
CC(=O)O[C@]1(C(C)=O)CC[C@H]2[C@@H]3C[C@H](C)C4=CC(=O)CC[C@]4(C)[C@H]3CC[C@@]21C [MEDROXYPROGESTERONE ACETATE]	Not Active	Not Active	Not Active	Not Active	Not Active	Not Active	Not Active	Not Active	Not Active	–	–	–	–	–	–
CC[C@@]1(O)C(=O)OCc2c1cc1n(c2=O)Cc2cc3c(CN(C)C)c(O)ccc3nc2-1 [TOPOTECAN]	Not Active	Not Active	Not Active	Not Active	Not Active	Not Active	Not Active	Not Active	Not Active	–	–	–	–	–	–
Cc1cnc(NC(=O)C2=C(O)c3ccccc3S(=O)(=O)N2C)s1 [MELOXICAM]	Not Active	Not Active	Not Active	Not Active	Not Active	Not Active	Not Active	Not Active	Not Active	–	–	–	–	–	–
Cc1cccc(C)c1NC(=O)C(C)N (stereo not drawn) [TOCAINIDE]	Not Active	Not Active	Not Active	Not Active	Not Active	Not Active	Not Active	Not Active	Not Active	–	–	–	–	–	–
COC(=O)Nc1nc2ccc(C(=O)c3ccccc3)cc2[nH]1 [MEBENDAZOLE]	Not Active	Not Active	Not Active	Not Active	Not Active	Not Active	Not Active	Not Active	Not Active	–	–	–	–	–	–
CC[C@H](C)[C@@H](CO[C@@H](Cc1ccccc1)C(=O)N[C@@H](CCS(C)(=O)=O)C(=O)OC(C)C)NC[C@@H](N)CS	Not Active	Not Active	–	Not Active	Not Active	Not Active	Not Active	Not Active	Not Active	0.028 µM	0.00963 µM	–	–	–	–
CC1(C)[C@H](C(=O)O)N2C(=O)C[C@H]2S1(=O)=O [SULBACTAM]	Not Active	Not Active	Not Active	Not Active	Not Active	Not Active	Not Active	Not Active	Not Active	–	–	–	–	–	–
CC(O)C(=O)O (stereo not drawn) [LACTIC ACID]	Not Active	Not Active	Not Active	Not Active	Not Active	Not Active	Not Active	Not Active	Not Active	–	–	–	–	–	–
